Experiments:
Type in all cases: in vivo
[1] = test system: galium (catchweed bedstraw, Galium aparine); assay: Test C preemergence, plant response rating
[2] = test system: johnsongrass (Sorghum halepense); assay: Test C preemergence, plant response rating
[3] = test system: pigweed, palmer (palmer pigweed, Amaranthus palmeri); assay: Test C preemergence, plant response rating
[4] = test system: kochia (Kochia scoparia); assay: Test C preemergence, plant response rating
[5] = test system: surinam grass (Brachiaria decumbens); assay: Test C preemergence, plant response rating
[6] = test system: wild poinsettia (Euphorbia heterophylla); assay: Test C preemergence, plant response rating
[7] = test system: oat, wild (wild oat Avena fatua); assay: Test C preemergence, plant response rating
[8] = test system: Canada thistle (Cirsium arvense); assay: Test C postemergence, plant response rating; conditions: for Canada Thistle plant response rating: scale 0 to 100 (0 no effect, 100 complete control)
Method in brief: (§1)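 Preemergence: seeds sown in loam–sand blend or silt loam and sprayed with test chemicals in a non-phytotoxic surfactant-containing solvent. Postemergence: potted plants at 2–18 cm (1–4-leaf stage) sprayed with the same formulation. After 13–15 d in greenhouse, visual rating versus controls on 0 (no effect) to 100 (complete control) scale.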

[9] = test system: buckwheat, wild (wild buckwheat, Polygonum convolvulus); assay: Test C postemergence, plant response rating; conditions: for Buckwheat, Wild plant response rating: scale 0 to 100 (0 no effect, 100 complete control)
Method in brief: as §1

[10] = test system: field poppy (Papaver rhoeas); assay: Test C postemergence, plant response rating; conditions: for Field Poppy plant response rating: scale 0 to 100 (0 no effect, 100 complete control)
Method in brief: as §1

[11] = test system: field violet (Viola arvensis); assay: Test C postemergence, plant response rating; conditions: for Field Violet plant response rating: scale 0 to 100 (0 no effect, 100 complete control)
Method in brief: as §1

[12] = test system: geranium, cutleaf (cutleaf geranium, Geranium dissectum); assay: Test C postemergence, plant response rating; conditions: for Geranium, Cutleaf plant response rating: scale 0 to 100 (0 no effect, 100 complete control)
Method in brief: as §1

[13] = test system: johnsongrass (Sorghum halepense); assay: Test C postemergence, plant response rating; conditions: for Johnsongrass plant response rating: scale 0 to 100 (0 no effect, 100 complete control)
Method in brief: as §1

[14] = test system: nightshade (eastern black nightshade, Solanum ptycanthum); assay: Test C postemergence, plant response rating; conditions: for Nightshade plant response rating: scale 0 to 100 (0 no effect, 100 complete control)
Method in brief: as §1

[15] = test system: pigweed, palmer (palmer pigweed, Amaranthus palmeri); assay: Test C postemergence, plant response rating; conditions: for Pigweed, Palmer plant response rating: scale 0 to 100 (0 no effect, 100 complete control)
Method in brief: as §1

[16] = test system: speedwell (bird's-eye speedwell, Veronica persica); assay: Test C postemergence, plant response rating; conditions: for Speedwell plant response rating: scale 0 to 100 (0 no effect, 100 complete control)
Method in brief: as §1

[17] = test system: surinam grass (Brachiaria decumbens); assay: Test C postemergence, plant response rating
Method in brief: as §1

[18] = test system: wild mustard (Sinapis arvensis); assay: Test C postemergence, plant response rating; conditions: for Mustard, Wild plant response rating: scale 0 to 100 (0 no effect, 100 complete control)
Method in brief: as §1

[19] = test system: wild poinsettia (Euphorbia heterophylla); assay: Test C postemergence, plant response rating; conditions: for Poinsettia, Wild plant response rating: scale 0 to 100 (0 no effect, 100 complete control)
Method in brief: as §1

[20] = test system: windgrass (Apera spica-venti); assay: Test C postemergence, plant response rating
Method in brief: as §1

[21] = 125 g ai/ha, scale 0 to 100 (0 no effect, 100 complete control)

## O=C(CCCC(F)(F)F)c1c(Oc2ncc(Cl)cn2)cccc1C(F)(F)F [Compound 125]
[1]; 31 g ai/ha, scale 0 to 100
  Plant response rating, Galium: 5
[1]; 62 g ai/ha, scale 0 to 100
  Plant response rating, Galium: 30
[1]; 125 g ai/ha, scale of 0 to 100
  Plant response rating, Galium: 80
[2]; 31 g ai/ha, scale 0 to 100
  Plant response rating, Johnsongrass: 5
[2]; 62 g ai/ha, scale 0 to 100
  Plant response rating, Johnsongrass: 60
[2]; 125 g ai/ha, scale of 0 to 100
  Plant response rating, Johnsongrass: 75
[3]; 31 g ai/ha, scale 0 to 100
  Plant response rating, Pigweed, Palmer: 100
[3]; 62 g ai/ha, scale 0 to 100
  Plant response rating, Pigweed, Palmer: 100
[3]; 125 g ai/ha, scale of 0 to 100
  Plant response rating, Pigweed, Palmer: 100
[4]; 31 g ai/ha, scale 0 to 100
  Plant response rating, Kochia: 60
[4]; 62 g ai/ha, scale 0 to 100
  Plant response rating, Kochia: 90
[4]; 125 g ai/ha, scale of 0 to 100
  Plant response rating, Kochia: 98
[5]; 31 g ai/ha, scale 0 to 100
  Plant response rating, Surinam Grass: 20
[5]; 62 g ai/ha, scale 0 to 100
  Plant response rating, Surinam Grass: 40
[5]; 125 g ai/ha, scale of 0 to 100
  Plant response rating, Surinam Grass: 65
[6]; 31 g ai/ha, scale 0 to 100
  Plant response rating, Poinsettia, Wild: 0
[6]; 62 g ai/ha, scale 0 to 100
  Plant response rating, Poinsettia, Wild: 25
[6]; 125 g ai/ha, scale of 0 to 100
  Plant response rating, Poinsettia, Wild: 30
[7]; 31 g ai/ha, scale 0 to 100
  Plant response rating, Oat, Wild: 0
[7]; 62 g ai/ha, scale 0 to 100
  Plant response rating, Oat, Wild: 10
[7]; 125 g ai/ha, scale of 0 to 100
  Plant response rating, Oat, Wild: 55
[8]; 16 g ai/ha, scale of 0 to 100
  Plant response rating, Canada Thistle: 80
[8]; 31 g ai/ha, scale 0 to 100
  Plant response rating, Canada Thistle: 85
[8]; 62 g ai/ha
  Canada Thistle plant response rating: 90
[8]; 125 g ai/ha
  Canada Thistle plant response rating: 90
[9]; 16 g ai/ha, scale of 0 to 100
  Plant response rating, Buckwheat, Wild: 70
[9]; 31 g ai/ha, scale 0 to 100
  Plant response rating, Buckwheat, Wild: 65
[9]; 62 g ai/ha
  Buckwheat, Wild plant response rating: 75
[9]; 125 g ai/ha
  Buckwheat, Wild plant response rating: 98
[10]; 16 g ai/ha, scale of 0 to 100
  Plant response rating, Field Poppy: 90
[10]; 31 g ai/ha, scale 0 to 100
  Plant response rating, Field Poppy: 95
[10]; 62 g ai/ha
  Field Poppy plant response rating: 100
[10]; 125 g ai/ha
  Field Poppy plant response rating: 100
[11]; 16 g ai/ha, scale of 0 to 100
  Plant response rating, Field Violet: 90
[11]; 31 g ai/ha, scale 0 to 100
  Plant response rating, Field Violet: 98
[11]; 62 g ai/ha
  Field Violet plant response rating: 98
[11]; 125 g ai/ha
  Field Violet plant response rating: 98
[12]; 16 g ai/ha, scale of 0 to 100
  Plant response rating, Geranium, Cutleaf: 25
[12]; 31 g ai/ha, scale 0 to 100
  Plant response rating, Geranium, Cutleaf: 30
[12]; 62 g ai/ha
  Geranium, Cutleaf plant response rating: 55
[12]; 125 g ai/ha
  Geranium, Cutleaf plant response rating: 55
[13]; 16 g ai/ha, scale of 0 to 100
  Plant response rating, Johnsongrass: 5
[13]; 31 g ai/ha, scale 0 to 100
  Plant response rating, Johnsongrass: 5
[13]; 62 g ai/ha
  Johnsongrass plant response rating: 10
[13]; 125 g ai/ha
  Johnsongrass plant response rating: 25
[14]; 16 g ai/ha, scale of 0 to 100
  Plant response rating, Nightshade: 50
[14]; 31 g ai/ha, scale 0 to 100
  Plant response rating, Nightshade: 75
[14]; 62 g ai/ha
  Nightshade plant response rating: 85
[14]; 125 g ai/ha
  Nightshade plant response rating: 90
[15]; 16 g ai/ha, scale of 0 to 100
  Plant response rating, Pigweed, Palmer: 40
[15]; 31 g ai/ha, scale 0 to 100
  Plant response rating, Pigweed, Palmer: 85
[15]; 62 g ai/ha
  Pigweed, Palmer plant response rating: 80
[15]; 125 g ai/ha
  Pigweed, Palmer plant response rating: 85
[16]; 16 g ai/ha, scale of 0 to 100
  Plant response rating, Speedwell: 55
[16]; 31 g ai/ha, scale 0 to 100
  Plant response rating, Speedwell: 70
[16]; 62 g ai/ha
  Speedwell plant response rating: 98
[16]; 125 g ai/ha
  Speedwell plant response rating: 98
[17]; 16 g ai/ha, scale of 0 to 100
  Plant response rating, Surinam Grass: 5
[17]; 31 g ai/ha, scale 0 to 100
  Plant response rating, Surinam Grass: 10
[17]; [21]
  Surinam Grass plant response rating: 20
[18]; 16 g ai/ha, scale of 0 to 100
  Plant response rating, Mustard, Wild: 90
[18]; 31 g ai/ha, scale 0 to 100
  Plant response rating, Mustard, Wild: 95
[18]; 62 g ai/ha
  Mustard, Wild plant response rating: 98
[18]; 125 g ai/ha
  Mustard, Wild plant response rating: 100
[19]; 16 g ai/ha, scale of 0 to 100
  Plant response rating, Poinsettia, Wild: 65
[19]; 31 g ai/ha, scale 0 to 100
  Plant response rating, Poinsettia, Wild: 65
[19]; 62 g ai/ha
  Poinsettia, Wild plant response rating: 75
[19]; 125 g ai/ha
  Poinsettia, Wild plant response rating: 85
[20]; 16 g ai/ha, scale of 0 to 100
  Plant response rating, Windgrass: 10
[20]; 31 g ai/ha, scale 0 to 100
  Plant response rating, Windgrass: 15
[20]; [21]
  Windgrass plant response rating: 35
